From PubChem BioAssay (NCI)
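Briefly, cells in 96-well plates were exposed to five compound concentrations for 48 h, and endpoints were estimated by linear interpolation. GI50 = concentration required for 50% inhibition of growth. Definition used: TGI = concentration required for complete inhibition of growth.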

Tests used:
Assay in all cases: DTP human tumour cell line panel, 48 h
[1] = system: SK-OV-3 ovarian
[2] = system: HCT-15 colon
[3] = system: OVCAR-4 ovarian
[4] = system: SNB-75 CNS
[5] = system: SNB-19 CNS
[6] = system: IGROV1 ovarian
[7] = system: SF-268 CNS
[8] = system: MDA-MB-435
[9] = system: HOP-62 NSCLC
[10] = system: SR leukemia

| SMILES | TGI [1] [µM] | TGI [2] [µM] | TGI [3] [µM] | TGI [4] [µM] | TGI [5] [µM] | TGI [6] [µM] | TGI [7] [µM] | TGI [8] [µM] | TGI [9] [µM] | TGI [10] [µM] | GI50 [9] [µM] | GI50 [1] [µM] | GI50 [2] [µM] | GI50 [3] [µM] | GI50 [4] [µM] | GI50 [5] [µM] | GI50 [6] [µM] | GI50 [7] [µM] | GI50 [8] [µM] |
| --- | --- | --- | --- | --- | --- | --- | --- | --- | --- | --- | --- | --- | --- | --- | --- | --- | --- | --- | --- |
| Fc1ccc(-c2sc(-c3cccs3)cc2Cc2cccs2)cc1 | > 100 | > 100 | > 100 | > 100 | > 100 | > 100 | > 100 | > 100 | – | – | – | – | – | – | – | – | – | – | – |
| Nc1cc(=O)n(-c2ccccc2)c(=S)n1-c1ccccc1 | > 100 | > 100 | – | > 100 | > 100 | > 100 | > 100 | – | > 100 | – | – | – | – | – | – | – | – | – | – |
| COc1ccc(C2C3CCc4ccccc4C3=NN2S(=O)(=O)c2ccc(/C=C/C(=O)O)cc2)cc1 (stereo not drawn) | 4.72 | 0.717 | 54.1 | – | > 100 | 4.91 | 71.2 | 2.69 | > 100 | 6.9 | – | – | – | – | – | – | – | – | – |
| O=C(Nc1cccc2c1[nH]c1c(-c3ccccc3)nccc12)c1ccccc1[N+](=O)[O-] | – | 41.2 | > 100 | > 100 | > 100 | > 100 | > 100 | – | – | > 100 | – | – | – | – | – | – | – | – | – |
| CCN(CC)Cc1c(/C=C\c2cc(OC)c(OC)c(OC)c2)ccc(OC)c1O | 10.2 | 34.8 | > 75.5 | 9.49 | > 100 | > 78.5 | 52.2 | 0.826 | > 100 | – | – | – | – | – | – | – | – | – | – |
| COC1(O)c2cccc(Cl)c2C(=O)N1C1(C(N)=O)CCCCC1 (stereo not drawn) | > 100 | > 100 | > 100 | > 100 | > 100 | > 100 | > 100 | – | > 100 | – | – | – | – | – | – | – | – | – | – |
| COc1ccc(C(=O)/C=C/c2ccc(OCCSCCCCCCCCCCSCCOc3ccc(/C=C/C(=O)c4ccc(OC)c(OC)c4)cc3)cc2)cc1OC | > 100 | > 100 | – | > 100 | – | > 100 | > 100 | > 100 | > 100 | > 100 | – | – | – | – | – | – | – | – | – |
| FC(F)(Sc1ncc[nH]1)c1nc2ccccc2o1 | > 100 | > 100 | > 100 | > 100 | – | > 100 | > 100 | > 100 | > 100 | > 100 | – | – | – | – | – | – | – | – | – |
| CC1C(OC2O[C@@H]3O[C@@]4(C)CC[C@H]5[C@H](C)CC[C@@H](C2C)[C@@]35O4)O[C@@H]2O[C@@]3(C)CC[C@H]4[C@H](C)CC[C@@H]1[C@@]24O3 (stereo partly drawn) | > 50 | > 50 | > 50 | > 50 | > 50 | – | > 50 | > 50 | > 50 | > 50 | – | – | – | – | – | – | – | – | – |
| COc1cc2c(cc1OCCCCOc1cc3c(cc1OC)C(=O)N1CCC[C@H]1C(=O)N3)N=C[C@@H]1CCCN1C2=O | – | 24.6 | 27.7 | 18.1 | 20.5 | 20.7 | 14.8 | 14.4 | 44.5 | 4.59 | – | – | – | – | – | – | – | – | – |
| Clc1ccc(-c2c(C3=NCCCN3)nnn2-c2ccccc2)cc1 | > 100 | > 100 | > 100 | > 100 | > 100 | > 100 | > 100 | – | > 100 | > 100 | – | – | – | – | – | – | – | – | – |
| COC(=O)C1(C(=O)OC)N=C(C)OC1/C=C/c1ccccc1 (stereo not drawn) | > 100 | > 100 | > 100 | > 100 | > 100 | > 100 | – | > 100 | > 100 | > 100 | – | – | – | – | – | – | – | – | – |
| CC1CCC2(CC1)NC1=C(CC(C)CC1)C1=C2CC(C)CC1 (stereo not drawn) | > 100 | 45.9 | 94.2 | 59.7 | 78.2 | > 100 | – | – | – | 55.8 | – | – | – | – | – | – | – | – | – |
| Cc1nnc(N)nc1/C=C/c1c(O)ccc2ccccc12 | > 100 | 44 | 61.1 | – | > 100 | 32.2 | 96.9 | 79.5 | > 100 | > 100 | – | – | – | – | – | – | – | – | – |
| O=C(O)C12CCCCC1CCCC2 (stereo not drawn) | > 100 | > 100 | > 100 | > 100 | > 100 | > 100 | > 100 | – | > 100 | – | – | – | – | – | – | – | – | – | – |
| Ic1cc2c(cc1C1SCCCS1)OCO2 | > 100 | > 100 | > 100 | > 100 | > 100 | > 100 | > 100 | – | > 100 | > 100 | – | – | – | – | – | – | – | – | – |
| CN1CCN(Cc2ccc(NC(=O)c3cccc(C#Cc4cnc(N)c5ncccc45)c3F)cc2C(F)(F)F)CC1 | 7.46 | 1.35 | 1.59 | 7.48 | 3.72 | 1.31 | 14.7 | 1.53 | 8.71 | – | 1.74 | 1.39 | 0.546 | 0.735 | 1.59 | 1.41 | 0.476 | 5.13 | 0.789 |
| CSC12c3cc(C)n(-c4ccccc4)c3CC(C)(C)CN1C(=O)C2Oc1ccccc1 (stereo not drawn) | – | > 100 | > 100 | > 100 | > 100 | > 100 | – | > 100 | > 100 | > 100 | – | – | – | – | – | – | – | – | – |
| Cc1cc(S(=O)(=O)/N=C(/[N-]S(=O)(=O)c2ccc(Cl)cc2)[n+]2ccc(N(C)C)cc2)c(SCC(=O)O)cc1Cl | > 100 | > 100 | > 100 | > 100 | > 100 | – | > 100 | > 100 | 46.2 | > 100 | – | – | – | – | – | – | – | – | – |
| CN1CN(c2ccccc2)C2(CCN(CCC3COc4ccccc4O3)CC2)C1=O (stereo not drawn) | 71.1 | > 100 | – | > 100 | 70.8 | 75.2 | > 100 | 89.4 | – | 71.6 | – | – | – | – | – | – | – | – | – |
| O=c1cn[nH]c(=S)n1/N=C/c1c[nH]c2ccccc12 | > 100 | > 100 | > 100 | – | > 100 | 31.8 | > 100 | > 100 | > 100 | > 100 | – | – | – | – | – | – | – | – | – |
| CCOC1Oc2ccccc2-c2nc(SC)ncc21 (stereo not drawn) | > 100 | > 100 | > 100 | > 100 | > 100 | > 100 | > 100 | > 100 | – | > 100 | – | – | – | – | – | – | – | – | – |
| CC(=O)NC(Cc1ccsc1)C(=O)O (stereo not drawn) | > 100 | > 100 | > 100 | > 100 | > 100 | > 100 | > 100 | – | > 100 | – | – | – | – | – | – | – | – | – | – |
